# Measurements from PMC6048268, “Resveratrol Inhibits Key Steps of Steroid Metabolism in a Human Estrogen-Receptor Positive Breast Cancer Model: Impact on Cellular Proliferation” (Frontiers in Pharmacology, 2018).
# Values joined by “and” are separate entries in the source; they are usually repeats but may differ in a detail not shown here. Equal values may be shown once. Read-outs that look alike come from different tables or passages of the source.
# Assays:
# MDA-MB-231 cells = conditions: for Km / Vmax: MDA-MB-231, precursor DHEA or E1 0–100 nM, Michaelis–Menten
# Description: (§1) Briefly, cartridges were preconditioned with 2 × 1.0 ml acetonitrile and 3 × 1.0 ml ammonium acetate buffer (10 mM, pH = 5.0), and the samples were loaded onto the columns. After washing with 1 × 1.0 ml ammonium acetate buffer (10 mM, pH = 5.0) and 2 × 1.0 ml acetonitrile/ammonium acetate buffer (10 mM, pH 5.0) 10:90 (v/v), the analytes were eluted using 2 × 650 μl acetonitrile/ammonium acetate buffer (10 mM, pH = 5.0) 95:5 (v/v) and evaporated until dry. Subsequently, samples were reconstituted in 270 μl acetonitrile/ammonium acetate buffer (10 mM, pH = 5.0) 25:75 (v/v) and stored at -80°C until further LC–HRMS analysis.
# (§2) After media collection, cell monolayers were washed five times with 2.0 ml DPBS, detached using 400 μl TrypLE® solution (37°C, 5 min), mixed with 600 μl DPBS and transferred into sample vials. Aliquots of these suspensions (100 μl each) were diluted and counted using the Casy® TT Cell Counter to determine the exact number of cells per sample well. The remaining cell suspensions (900 μl each) were gently centrifuged (1000 rpm, 8 min), and the supernatants were discarded. The cell pellets were subsequently resuspended in 100 μl aqueous ammonium acetate buffer (10 mM, pH = 5.0) and lysed by five freeze-thaw-cycles in liquid nitrogen (3 min each), followed by thawing at ambient temperature. Ammonium acetate buffer (1000 μl) was added, and the suspensions were centrifuged (14000 rpm, 5 min). Subsequently, the supernatants were concentrated using the same SPE protocol as described above. All processed samples were then stored at -80°C until further LC–HRMS analysis. For each condition, three biologically independent experiments were performed; the reported values represent the overall means ± SD of all values.
# (§3) LC was performed with an UltiMate 3000 RSLC-series system coupled to a maXis HD ESI-Qq-TOF mass spectrometer (Bruker Corporation, Bremen, Germany). A Phenomenex Luna® 3 μm C18(2) 100 Å LC column (250 mm × 4.6 mm I.D.; Phenomenex, Inc., Torrance, CA, United States), preceded by a Hypersil® BDS-C18 guard column (5 μm, 10 mm × 4.6 mm I.D.; Thermo Fisher Scientific, Inc.) was used for the separation of the analytes at a flow rate of 1.0 ml/min and a temperature of 43°C. […] The ESI ion source settings were as follows: capillary voltage: -4.5 kV; dry gas flow rate: 8.0 l/min N2; nebulizer: 1.0 bar N2; and dry temperature: 200°C. The ion transfer parameters were set to 400 Vpp funnel RF and 300 Vpp multipole RF, the quadrupole ion energy was 8.0 eV, and the collision cell parameters were as follows: collision RF, 1100 Vpp; collision energy, 10.0 eV; transfer time, 38 μs; and pre-pulse storage, 18 μs. In the range of m/z 150–500, full-scan mass spectra were recorded.
# (§4) The modes of inhibition were subsequently determined from Lineweaver–Burk plots, and the corresponding Ki values were calculated from Dixon plots using GraphPad Prism 6.0.
# MCF-7 cells = conditions: for Vmax: MCF-7, precursor DHEA or E1 0–100 nM, Michaelis–Menten
# Description: as §1, §2, §3, §4
# [1] = test system: steroid metabolism in MCF-7 cells; test: Inhibition of steroid metabolism by RES in MCF-7 cells (LC–HRMS); conditions: for formation rate in the presence of RES: 48 h
# Description: as §1, §2, §3, §4
Structure (SMILES),Km (MDA-MB-231 cells; 48 h) [µM],Vmax (MDA-MB-231 cells; 48 h) [fmol/10^6 cells/h],Vmax (MCF-7 cells; 48 h),"Km ([1]; MCF-7, 0 μM RES) [µM]","Vmax ([1]; MCF-7, 0 μM RES) [fmol/10^6 cells/h]","Km ([1]; MCF-7, 5 μM RES) [µM]","Vmax ([1]; MCF-7, 5 μM RES)","Km ([1]; MCF-7, 10 μM RES) [µM]","Vmax ([1]; MCF-7, 10 μM RES)","Km ([1]; MCF-7, 25 μM RES) [µM]","Vmax ([1]; MCF-7, 25 μM RES)","Km ([1]; MCF-7, 50 μM RES) [µM]","Vmax ([1]; MCF-7, 50 μM RES)","Km ([1]; MCF-7, 100 μM RES) [µM]","Vmax ([1]; MCF-7, 100 μM RES)","formation rate (MDA-MB-231 cells; MDA-MB-231, 100 nM E1, 48 h) [fmol/10^6 cells/h]","formation rate (MCF-7 cells; MCF-7, 100 nM E1, 48 h) [fmol/10^6 cells/h]",also measured
"C[C@]12CC[C@@H]3c4ccc(O[C@@H]5O[C@H](C(=O)O)[C@@H](O)[C@H](O)[C@H]5O)cc4CC[C@H]3[C@@H]1CC[C@@H]2O [E2-G, 17β-estradiol-3-O-(β-D-glucuronide)]",0.0879 ± 0.0322,0.33 ± 0.07,7.29 ± 1.36 fmol/10^6 cells/h and 7.29 ± 1.36^∗ fmol/10^6 cells/h,0.123 ± 0.0084,7.29 ± 0.36,0.135 ± 0.0059,7.00 ± 0.20 fmol/10^6 cells/h,0.136 ± 0.006,4.98 ± 0.14^∗ fmol/10^6 cells/h,0.132 ± 0.008,2.60 ± 0.12^∗ fmol/10^6 cells/h,0.126 ± 0.0132,1.51 ± 0.11^∗ fmol/10^6 cells/h,0.132 ± 0.0039,0.77 ± 0.02^∗ fmol/10^6 cells/h,–,–,"formation rate (MDA-MB-231 cells; human, 48 h, 100 nM): 0.18 ± 0.02 fmol/10^6 cells/h; formation rate (MCF-7 cells; human, 48 h, 100 nM): 3.23 ± 0.45 fmol/10^6 cells/h"
"C[C@]12CC[C@@H]3c4ccc(OS(=O)(=O)O)cc4CC[C@H]3[C@@H]1CC[C@@H]2O [E2-S, 17β-estradiol-3-O-sulfate]",0.038 ± 0.0136,0.16 ± 0.02,24.7 ± 4.9 fmol/10^6 cells/h and 24.7 ± 4.9^∗ fmol/10^6 cells/h,0.104 ± 0.0155,24.7 ± 4.9,0.106 ± 0.0159,6.64 ± 0.58^∗ fmol/10^6 cells/h,0.0993 ± 0.0128,2.34 ± 0.19^∗ fmol/10^6 cells/h,0.0949 ± 0.0147,1.01 ± 0.10^∗ fmol/10^6 cells/h,0.101 ± 0.0112,0.56 ± 0.01^∗ fmol/10^6 cells/h,0.0997 ± 0.006,0.27 ± 0.01^∗ fmol/10^6 cells/h,0.12 ± 0.02,11.8 ± 0.8,–
"C[C@]12CC[C@@H]3c4ccc(OS(=O)(=O)O)cc4CC[C@H]3[C@@H]1CCC2=O [E1-S, estrone-3-O-sulfate]",0.12 ± 0.0681,1.08 ± 0.38,30.4 ± 2.5 fmol/10^6 cells/h and 30.4 ± 2.5^∗ fmol/10^6 cells/h,0.102 ± 0.0129,30.4 ± 0.5,0.094 ± 0.012,4.51 ± 0.33^∗ fmol/10^6 cells/h,0.101 ± 0.0086,2.54 ± 0.21^∗ fmol/10^6 cells/h,0.12 ± 0.0155,1.23 ± 0.11^∗ fmol/10^6 cells/h,0.109 ± 0.0041,0.57 ± 0.02^∗ fmol/10^6 cells/h,0.105 ± 0.009,0.28 ± 0.01^∗ fmol/10^6 cells/h,0.49 ± 0.07,15.1 ± 0.8,–
"C[C@]12CC[C@@H]3c4ccc(O)cc4CC[C@H]3[C@@H]1CC[C@@H]2O [E2, 17β-estradiol]",0.174 ± 0.0941,703.0 ± 164.5,628.6 ± 62.0 fmol/10^6 cells/h,0.169 ± 0.0117,628.6 ± 72.0,0.146 ± 0.0156,816.4 ± 76.6^∗ fmol/10^6 cells/h,0.155 ± 0.0097,1001.4 ± 43.0^∗ fmol/10^6 cells/h,0.153 ± 0.0136,1079.8 ± 71.4^∗ fmol/10^6 cells/h,0.172 ± 0.0143,1247.3 ± 56.2^∗ fmol/10^6 cells/h,0.174 ± 0.012,1302.2 ± 64.6^∗ fmol/10^6 cells/h,258.9 ± 25.1,233.9 ± 13.4,"formation rate in the presence of RES ([1]; MCF-7, 100 nM E1 + 100 μM RES): 471.5 ± 43.6 fmol/10^6 cells/h"
"C[C@]12CCC(=O)C=C1CC[C@@H]1[C@@H]2CC[C@]2(C)C(=O)CC[C@@H]12 [AD, 4-androstene-3,17-dione]",0.126 ± 0.0366,1994.0 ± 364.5,147.4 ± 8.1^∗ fmol/10^6 cells/h,0.115 ± 0.0096,147.4 ± 13.1,0.104 ± 0.0104,148.5 ± 9.4 fmol/10^6 cells/h,0.102 ± 0.0079,172.6 ± 7.7^∗ fmol/10^6 cells/h,0.112 ± 0.0107,242.0 ± 14.4^∗ fmol/10^6 cells/h,0.106 ± 0.0042,295.3 ± 9.4^∗ fmol/10^6 cells/h,0.0996 ± 0.0082,328.8 ± 12.9^∗ fmol/10^6 cells/h,–,–,"mean formation rate (MDA-MB-231 cells; MDA-MB-231, 100 nM DHEA, 48 h): 888.9 ± 60.1 fmol/10^6 cells/h; mean formation rate (MCF-7 cells; MCF-7, 100 nM DHEA, 48 h): 68.5 ± 11.1 fmol/10^6 cells/h; formation rate in the presence of RES ([1]; MCF-7, 100 nM DHEA + 100 μM RES): 165.1 ± 18.7 fmol/10^6 cells/h"
